Experimental data taken from patent US4452985A, “2-Guanyl-4-(substituted phenyl) thiazole derivatives” (American Home Products Corporation, priority 1983, dated 1984).
Structures can show the parent of a compound that is named as a salt. Where two headings read alike, the source gives them in different places.

Columns and labels:
[1] = cited from earlier work
[2] = test system: gastric acid secretion; assay: Gastric secretion in the pylorus-ligated rat (modified Shay procedure); format: in vivo; conditions: intraduodenal, 4 hours after ligation, read-out: % Inhibition of acid output; for inhibition in vivo at 16 mg/kg: 16 mg/kg i.d.; for inhibition in vivo at 32 mg/kg: 32 mg/kg i.d.; for inhibition in vivo at 4 mg/kg: 4 mg/kg i.d.
Method: The procedure for testing gastric secretion in the rat, a modification of the procedure of Shay et al., Gastroenterology, 26, 906-13 (1954) is carried out as follows:
Male Charles River rats weighing 200-300 grams are deprived of food but not water for 24 hours prior to use. Water is, however, withheld during the experiment. The rats are weighed, anesthetized, and the pylorus ligated according to the method of Shay et al. Treatment or vehicle control is then administered interduodenally (i.d.). Rats are housed 2/cage and sacrificed with CO2 four hours after ligation. The stomachs are removed, rinsed, and contents emptied into a graduated centrifuge tube. The tubes are centrifuged for 20 minutes at 2,000 RPM and the volume of gastric juice recorded. Any samples obviously contaminated by feces, food or hemolysis are eliminated. An aliquot of each is frozen for later analysis of Na^+, K^+ and Cl^- concentration. The pH is measured and 1 ml. of gastric juice is titrated with 0.1 N NaOH to a pH of 7.0-7.4. Titratable acid output is calculated in microequivalents and the percent inhibition of acid output is calculated as follows: [formula]

[3] = target: T1, H2 histamine receptors (Cavia porcellus, UniProt P47747); assay: Guinea pig heart (spontaneously beating right atrium) test: antagonism of histamine-induced positive chronotropic response; format: cell-based; conditions: 30 min preincubation, 32 °C, pH 7.4
T1 construct: from tissue; host or cells: guinea pig right atrium (spontaneously beating)
T1 sequence (P47747 whole entry): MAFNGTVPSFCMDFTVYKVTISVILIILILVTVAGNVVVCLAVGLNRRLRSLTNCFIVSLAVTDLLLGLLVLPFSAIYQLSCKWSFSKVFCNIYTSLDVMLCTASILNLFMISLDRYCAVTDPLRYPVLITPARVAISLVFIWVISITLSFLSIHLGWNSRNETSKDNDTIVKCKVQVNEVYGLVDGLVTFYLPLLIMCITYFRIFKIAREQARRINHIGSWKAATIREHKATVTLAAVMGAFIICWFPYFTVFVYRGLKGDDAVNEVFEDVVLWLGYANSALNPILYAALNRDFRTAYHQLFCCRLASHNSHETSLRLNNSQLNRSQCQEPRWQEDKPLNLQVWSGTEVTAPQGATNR
Method: The guinea pig heart atrium test is carried out as follows:
A guinea pig right atrium is suspended at 1 g. tension (isometric) in a thermostatically controlled (32° C.) tissue bath (10 ml.) containing oxygenated (95% O2; 5% CO2) Krebs-Haenseleit buffer (pH 7.4). The tissue is allowed to stabilize over 1 hour. Individual contractions are recorded with a force-displacement transducer through a strain gauge coupler. A control dose-response curve to histamine in the above described tissue bath is obtained after which the tissue is washed 3 times and allowed to re-equilibrate to basal rate. The test compound is added to the tissue bath at the desired final concentration. Thirty minutes after addition of the compound, a fresh histamine dose response curve is again obtained. Then the response to histamine in the presence of antagonist is compared to the histamine control response. This procedure is repeated, using fresh tissues, for each concentration of antagonist tested.

[4] = test system: H2 histamine receptors; conditions: cited from earlier work
[5] = histamine dose-response, three experiments, read-out: pA2 Value (apparent dissociation constant of the H2 antagonist) (converted)
[6] = values marked *: result of only one experiment, read-out: pKB value (converted)

## CN/C(=N/CCSCc1nc[nH]c1C)NC#N [Cimetidine]
[1]; elderly patients
  tendency to cause confusional states: tendency to cause confusional states in elderly patients
[1]; patients
  anti-androgenic activity: anti-androgenic activity
  duration of action: short duration of action

## N#Cc1ccc(-c2csc(NC(=N)N)n2)cc1 [Example 1, [4-(4-Cyanophenyl)-2-Thiazolyl]Guanidine, Hydrobromide]
[2]
  inhibition in vivo at 16 mg/kg: 50%

## N#CCc1ccc(-c2csc(NC(=N)N)n2)cc1 [Example 2, [4-[4-(Cyanomethyl)Phenyl]-2-Thiazolyl]Guanidine, Hydrobromide]
[2]
  inhibition in vivo at 32 mg/kg: 79%

## N#Cc1cccc(-c2csc(NC(=N)N)n2)c1 [Example 3, [4-(3-Cyanophenyl)-2-Thiazolyl]Guanidine, Hydrobromide, Hydrate]
[3]; [5]
  Kb: 251 nM
[2]
  inhibition in vivo at 4 mg/kg: 40%

## N=C(N)Nc1nc(-c2cccc(C(=O)O)c2)cs1 [Example 4, 3-[2-[(Aminoiminomethyl)Amino]-4-Thiazolyl]Benzoic Acid, Hydrochloride]
[3]; values marked *: result of only one experiment
  pKB value: 6.1

## N=C(N)Nc1nc(-c2cccc(C(N)=NO)c2)cs1 [Example 5, 3-[2-[(Aminoiminomethyl)Amino]-4-Thiazolyl]-N-Hydroxybenzenecarboximidamide, Dihydrochloride]
[3]; [5]
  Kb: 50.1 nM
[2]
  inhibition in vivo at 32 mg/kg: 68%

## N=C(N)Nc1nc(-c2cccc(C(N)=NOC(N)=O)c2)cs1 [Example 6, N-[(Aminocarbonyl)oxy]-3-[2-[(Aminoiminomethyl)Amino]-4-Thiazolyl]Benzenecarboximidamide, Hydrochloride, Hemihydrate]
[3]; [5]
  Kb: 63.1 nM

## CC(=O)ON=C(N)c1cccc(-c2csc(NC(=N)N)n2)c1 [Example 7, N-(Acetyloxy)-3-[[2-[(Aminoiminomethyl)Amino]-4-Thiazolyl]Benzenecarboximidamide, Dihydrochloride]
[3]; [5]
  Kb: 39.8 nM

## N=C(N)Nc1nc(-c2cccc(-c3noc(C(F)(F)F)n3)c2)cs1 [Example 8, [4-[3-[5-(Trifluoromethyl)-1,2,4-Oxadiazol-3-yl]Phenyl]-2-Thiazoyl]Guanidine, Hydrochloride]
[2]
  inhibition in vivo at 32 mg/kg: 84%

## N=C(N)Nc1nc(-c2cccc(C(=N)N)c2)cs1 [Example 9, 3-[2-[(Aminoiminomethyl)Amino]-4-Thiazolyl]Benzenecarboximidamide, Dihydrobromide, Hemiethanolate]
[3]; [5]
  Kb: 5.01 nM
[2]
  inhibition in vivo at 32 mg/kg: 55%

## CCOC(=N)c1cccc(-c2csc(NC(=N)N)n2)c1 [Example 10, 3-[2-[(Aminoiminomethyl)Amino]-4-Thiazolyl]Benzenecarboximidic Acid Ethyl Ester]
[2]
  inhibition in vivo at 4 mg/kg: 41%

## N=C(N)Nc1nc(-c2cccc(C(N)=O)c2)cs1 [Example 11, 3-[2-[(Aminoiminomethyl)Amino]-4-Thiazolyl]Benzenecarboxamide, Hydrobromide]
[3]; [6]
  Kb: 50.1 nM

## CN=C(N)c1cccc(-c2csc(NC(=N)N)n2)c1 [Example 12, 3-[2-[(Aminoiminomethyl)Amino]-4-Thiazolyl]-N-Methylbenzenecarboximidamide,Quarter Hydrate]
[3]; [6]
  Kb: 6.31 nM
[2]
  inhibition in vivo at 16 mg/kg: 75%

## N=C(N)Nc1nc(-c2cccc(C(=O)NN)c2)cs1 [Example 13, 3-[2-[(Aminoiminomethyl)Amino]-4-Thiazolyl]Benzoic Acid Hydrazide, Hydrochloride]
[3]; [6]
  Kb: 79.4 nM

## CNC(=NC#N)NCCSCc1csc(N=C(N)N)n1 [tiotidine]
[4]
  H2 antagonist activity relative to cimetidine (in words): greater activity than cimetidine
